Reference: patent US7807713B2, “Pan-antagonists for the androgen receptor and androgen associated with anti-androgen withdrawal” (University of Delaware, priority 2006, dated 2010)
Where a chain is given by its changes, count along the chain named. Where two headings read alike, the source gives them in different places.

Assays:
Format in all cases: cell-based
[1] = target: T1, hAR(W741C) (Homo sapiens, UniProt P10275, W742C); test: Transcription assay (ARE-luciferase reporter, CV-1 cells), mutant androgen receptor W741C
T1 construct: expressed in transfected cells; host or cells: CV-1
T1 sequence (P10275 1-920 W742C): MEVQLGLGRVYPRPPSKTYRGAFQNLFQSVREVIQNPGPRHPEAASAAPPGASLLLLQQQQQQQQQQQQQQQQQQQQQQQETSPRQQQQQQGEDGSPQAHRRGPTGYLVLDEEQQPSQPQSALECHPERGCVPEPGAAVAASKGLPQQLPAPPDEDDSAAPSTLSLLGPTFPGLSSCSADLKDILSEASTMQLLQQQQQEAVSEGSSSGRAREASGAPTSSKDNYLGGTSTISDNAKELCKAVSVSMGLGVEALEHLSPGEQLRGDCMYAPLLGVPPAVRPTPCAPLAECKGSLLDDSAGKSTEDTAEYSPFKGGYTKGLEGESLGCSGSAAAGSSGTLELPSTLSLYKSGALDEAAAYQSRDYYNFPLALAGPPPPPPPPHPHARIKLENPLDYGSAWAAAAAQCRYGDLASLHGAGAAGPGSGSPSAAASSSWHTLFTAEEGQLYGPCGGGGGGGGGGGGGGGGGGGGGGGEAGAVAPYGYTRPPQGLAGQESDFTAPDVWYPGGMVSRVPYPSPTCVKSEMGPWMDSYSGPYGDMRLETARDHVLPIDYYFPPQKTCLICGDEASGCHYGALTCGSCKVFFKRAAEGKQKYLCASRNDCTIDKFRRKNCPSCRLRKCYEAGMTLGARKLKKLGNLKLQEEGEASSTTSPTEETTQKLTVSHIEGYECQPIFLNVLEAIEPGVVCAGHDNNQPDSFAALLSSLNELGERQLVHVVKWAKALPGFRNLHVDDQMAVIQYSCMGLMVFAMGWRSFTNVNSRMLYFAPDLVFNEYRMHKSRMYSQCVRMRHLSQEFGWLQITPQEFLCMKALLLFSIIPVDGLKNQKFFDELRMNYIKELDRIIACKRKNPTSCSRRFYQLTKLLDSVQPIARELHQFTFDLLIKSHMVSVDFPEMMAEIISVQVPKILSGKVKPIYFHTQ
Method: (§1) Twenty-four hours prior to transfection, CV-1 cells were seeded at a density of 45,000 cells per well in 24-well cell culture plates and grown in phenol red free Dulbecco's Modified Eagle Medium (DMEM) supplemented with 10% cosmic calf serum (CCS). ARE-luciferase reporter and Renilla-Luc as the internal standard and a […] expression vector encoding the wild-type androgen receptor or mutant androgen receptor were transfected with Lipofectamine (Invitrogen) following manufacturer's protocol. Five hours after transfection, media was added containing the appropriate concentrations of ligands. The cells were allowed to incubate for 38 hours before harvesting by passive lysis buffer. Cell extracts were immediately assayed using the Dual Luciferase Assay (Promega).

[2] = target: T2, hAR(T877A) (Homo sapiens, UniProt P10275, T878A); test: Transcription assay (ARE-luciferase reporter, CV-1 cells), mutant androgen receptor T877A
T2 construct: expressed in transfected cells; host or cells: CV-1
T2 sequence (P10275 1-920 T878A): T1 sequence (P10275 1-920 W742C) with C742W, T878A
Method: as §1

[3] = target: T3, hAR(wt) (Homo sapiens, UniProt P10275); test: Transcription assay (ARE-luciferase reporter, CV-1 cells), wild-type androgen receptor
T3 construct: expressed in transfected cells; host or cells: CV-1
T3 sequence (P10275 1-920): T1 sequence (P10275 1-920 W742C) with C742W
Method: as §1

[4] = tested on: LNCaP cells; test: Cell proliferation assay (CyQuant), R1881 induced; conditions: 8 day ligand treatment ± R1881, FIG. 9
Excerpt: FIG. 9. LNCaP cell proliferation (CyQuant) after 8 day ligand treatment±R1881. Relative Fluorescence±SEM. (R1881±ligand; P<0.05, one-way ANOVA).
Further evidence that formulae such as PLM1 can act to limit androgen dependent proliferation of prostate cells was obtained by cell proliferation assays as determined using CyQuant® assays, according to manufacturer's instructions (invitrogen).

In the case of “3-(2-phenylphenylsulfonyl)-N-(4-cyano-3-(trifluoromethyl)phenyl)-2-hydroxy-2-methylpropanamide [PLM4]”, the EC50 ([1]; half maximal activation of reporter gene expression (agonism), '—' = no effect, read-out: hAR(W741C) EC50) is reported as 33 ± 9.8 nM.

In the case of `CC(O)(CS(=O)(=O)c1ccccc1Cc1ccccc1O)C(=O)Nc1ccc(C#N)c(C(F)(F)F)c1` (stereo not drawn) [PAN11, N-(4-cyano-3-(trifluoromethyl)phenyl)-2-hydroxy-3-(2-(2-hydroxybenzyl)phenylsulfonyl)-2-methylpropanamide], the EC50 [2] is reported as 1.9 nM.

In the case of `CC(O)(CS(=O)(=O)c1ccccc1Cc1cccc(O)c1)C(=O)Nc1ccc(C#N)c(C(F)(F)F)c1` (stereo not drawn) [PAN21, N-(4-cyano-3-(trifluoromethyl)phenyl)-2-hydroxy-3-(2-(3-hydroxybenzyl)phenylsulfonyl)-2-methylpropanamide], the EC50 [3] is reported as 1.8 nM.

For `CC(O)(CS(=O)(=O)c1cccc2ccccc12)C(=O)Nc1ccc(C#N)c(C(F)(F)F)c1` (stereo not drawn) [PLM1, N-(4-cyano-3-(trifluoromethyl)phenyl)-2-hydroxy-2-methyl-3-(naphthalen-1-ylsulfonyl)propanamide], the “inhibiting androgen (R1881) induced proliferation of LNCaP cells” value [4] was “at least as potent as biclutamide itself”.

Work on `CC(O)(CS(=O)(=O)c1cccc(Cc2ccccc2)c1)C(=O)Nc1ccc(C#N)c(C(F)(F)F)c1` (stereo not drawn) [PLM3, 3-(3-benzylphenylsulfonyl)-N-(4-cyano-3-(trifluoromethyl)phenyl)-2-hydroxy-2-methylpropanamide] yielded an EC50 [1] of 630 ± 67 nM.

With `CC(O)(CS(=O)(=O)c1ccc(Br)c2ccccc12)C(=O)Nc1ccc(C#N)c(C(F)(F)F)c1` (stereo not drawn) [PLM9, 3-(1-bromonaphthalen-4-ylsulfonyl)-N-(4-cyano-3-(trifluoromethyl)phenyl)-2-hydroxy-2-methylpropanamide] the EC50 [2] was 426 ± 72 nM.
